The source of these data is US20260209215A1, “GLYCINE DERIVATIVES WITH P2X4 RECEPTOR-BLOCKING ACTIVITY AS DIAGNOSTICS AND FOR THE TREATMENT OF PAIN, INFLAMMATION, CANCER, AND OTHER P2X4 RECEPTOR-RELATED DISEASES” (RHEINISCHE-FRIEDRICH-WILHELMS-UNIVERSITÄT BONN, priority 2022, published 2026).

The term IC50 denotes the concentration at which inhibition is half-maximal. Low readings indicate greater potency in that assay, high ones weaker potency in that assay.

This test concerns the target T1, P2X4 receptor (Homo sapiens, UniProt Q99571).
T1 construct: expressed in transfected cells; host or cells: 1321N1 astrocytoma cells, retroviral vector pQCXIN, G418 selection, monoclones
T1 sequence (Q99571 1-388): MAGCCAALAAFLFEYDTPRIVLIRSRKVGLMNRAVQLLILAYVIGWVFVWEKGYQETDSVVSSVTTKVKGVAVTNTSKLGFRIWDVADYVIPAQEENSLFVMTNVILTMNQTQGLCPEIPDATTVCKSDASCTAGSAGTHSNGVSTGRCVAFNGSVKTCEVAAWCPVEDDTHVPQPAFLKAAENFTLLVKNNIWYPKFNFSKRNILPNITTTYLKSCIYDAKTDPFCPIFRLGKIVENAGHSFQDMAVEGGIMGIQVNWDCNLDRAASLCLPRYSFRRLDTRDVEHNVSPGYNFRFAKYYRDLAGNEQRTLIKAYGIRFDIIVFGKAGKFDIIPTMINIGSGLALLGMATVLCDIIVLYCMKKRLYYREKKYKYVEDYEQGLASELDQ
The test can be described thus: Measurement of Ca2+ influx in transfected 1321N1 astrocytoma cells (P2X4 inhibitory potency). The test is classed as cell-based. The note with it: agonist-mediated Ca2+ influx, FLUO-4, 1321N1 astrocytoma cells; antagonists added 30 min before agonist. In a few lines: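 Stable 1321N1 astrocytoma cells expressing human P2X4, loaded with FLUO-4 AM (2.4 μM) in HBSS/HEPES pH 7.3 for 1 h at 23 °C. Antagonists added 30 min before agonist; fluorescence at 520 nm recorded for 30 s. Compounds tested at 7–8 concentrations spanning three log units.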

As for `COc1ccc(-c2ccc(C)cn2)cc1NCC(=O)N1CCc2cc(F)c(F)cc21` [Example 118, 1-(5,6-difluoroindolin-1-yl)-2-((2-methoxy-5-(5-methylpyridin-2-yl)phenyl)amino)ethan-1-one], the IC50 lay within 40 to 69 nM.

Molecule `COC(=O)c1cccc2c1CCN2C(=O)CNc1cc(-c2ccc(C)cn2)ccc1OC` [Example 119, methyl 1-((2-methoxy-5-(5-methylpyridin-2-yl)phenyl)glycyl) indoline-4-carboxylate] had a half-maximal inhibitory concentration (IC50) of 70 to 99 nM.

`COc1ccc(-c2ccc(C)cn2)cc1NCC(=O)N1CCc2c(OC)cccc21` [Example 120, 2-((2-methoxy-5-(5-methyl-pyridin-2-yl)phenyl)amino)-1-(4-methoxyindolin-1-yl) ethan-1-one] showed a half-inhibitory concentration (IC50) of 40 to 69 nM.

For `COc1ccc(-c2cc(C)c(C)cn2)cc1NCC(=O)N1CCc2c(O)cccc21` [Example 121, 2-((5-(4,5-dimethyl-pyridin-2-yl)-2-methoxyphenyl)amino)-1-(4-hydroxyindolin-1-yl) ethan-1-one], the IC50 is more than 100 nM.

Molecule `O=C(CNc1cccc(-c2ccccn2)c1)c1c[nH]c2cc(F)c(F)cc12` [Example 122, 1-(5,6-difluoro-1H-indol-3-yl)-2-((3-(pyridin-2-yl)phenyl)amino)ethan-1-one] returned an IC50 of more than 100 nM.
